Target: antibody
Test: Cross-reactivity of the antibody by ELISA (competitive binding with enzyme conjugate)
Parameters: species or system New Zealand white rabbits
Settings: concentration giving 50% reduction of absorbance caused by enzyme conjugate binding to a known amount of antibody
Procedure: The antigen produced in example 2 is dissolved into 0.1M sodium phosphate buffer solution containing 0.14% sodium chloride at pH 7.6 (PBS 7.6). One milliliter of the antigen solution, 0.5 mg antigen per milliliter, is mixed with one milliliter of Freund's complete adjuvant and emulsified. The emulsion is injected peri-lymph nodal into New Zealand white rabbits at 0.5 mg/rabbit. Three weeks after the initial immunization, 0.25 mg of the antigen in 1 mL of PBS 7.6 is emulsified with 1 mL of Freund's incomplete adjuvant and injected into the rabbits intramuscularly as boosters. The booster injections are introduced every three weeks into the rabbits. After the second boost, blood samples are collected through the ear vein ten days post injection. Serum containing the antibody is harvested from the blood samples and stored.
The antibody and enzyme conjugate prepared above are used to establish an ELISA method for the determination of the presence and concentration of imidazolinones in soil, water or plant samples. A Costar 96 well polystyrene EIA treated flat bottom microwell plate is coated with a constant amount of the antibody in a 0.1N Na2 CO3 buffer. The antibody coated wells are incubated overnight at 4° C., washed with PBS 7.6 buffer containing 0.01% TWEEN® 20, blocked with 5% milk (nonfat dry milk) in PBS 7.6 and incubated 30 minutes at room temperature. Standard solutions having concentrations of imazaquin from 0 to 25 ng per mL are added to the blocked wells followed by the addition of the aforementioned enzyme conjugate.
The wells are incubated for thirty minutes, washed and then a freshly prepared tetramethylbenzidine/hydrogen peroxide substrate solution is added to each well. After ten minutes, readings are taken for each well at 650 nm using a microwell reader.
The cross reactivity of the antibody with imidazolinone compounds, imidazolinone metabolites and other commonly found agrochemicals is determined using the procedure of example 5. The concentration of a compound which produces a 50% reduction of absorbance caused by the enzyme conjugate binding to a known amount of antibody is defined as the I50 value (50% inhibition concentration). The I50 values from the cross-reactivity studies are in Table III.

Molecule	I50 (50% inhibition concentration)
CC(C)C(C)(C(N)=O)N1C(=O)c2cc3ccccc3nc2C1=O (stereo not drawn) [1,3-Dihydro-α-isopropyl-α-methyl-1,3-dioxo-2 --H-pyrrolo[3,4- -b]quinoline-2-acetamide]	> 5,000 ng/mL
CC(C)C(C)(NC(=O)c1nc2ccccc2cc1C(=O)O)C(N)=O (centres unmarked) [2-[(1-Carbamoyl-1,2-dimethylpropyl)carbamoyl]-3-quinolinecarboxylic acid]	> 5,000 ng/mL
CC(C)C(C)(NC(=O)c1cc2ccccc2nc1C(=O)O)C(N)=O (centres unmarked) [3-[(1-Carbamoyl-1,2-dimethylpropyl)carbamoyl]quinaldic acid]	> 5,000 ng/mL
CCc1cccc(CC)c1N(COC)C(=O)CCl [Alachlor]	> 100,000 ng/mL
CCNc1nc(Cl)nc(NC(C)C)n1 [Atrazine]	> 100,000 ng/mL
CCCCOCN(C(=O)CCl)c1c(CC)cccc1CC [Butachlor]	> 100,000 ng/mL
COc1nc(C)nc(NC(=O)NS(=O)(=O)c2ccccc2Cl)n1 [Chlorsulfuron]	> 100,000 ng/mL
CC(C)C1(C)N=C(c2ncccc2C(=O)O)NC1=O (centres unmarked) [Imazapyr, 2-(4-isopropyl-4-methyl-5-oxo-2-imidazolin-2-yl)nicotinic acid]	149.0 ng/mL
CC(C)C1(C)N=C(c2nc3ccccc3cc2C(=O)O)NC1=O (centres unmarked) [Imazaquin, 2-(4-isopropyl-4-methyl-5-oxo-2-imidazolin-2-yl)-3-quinolinecarboxylic acid]	10.7 ng/mL
CCc1cnc(C2=NC(C)(C(C)C)C(=O)N2)c(C(=O)O)c1 (centres unmarked) [Imazethapyr, 5-ethyl-2-(4-isopropyl-4-methyl-5-oxo-2-imidazolin-2-yl)nicotinic acid]	18.5 ng/mL
COC(=O)c1nc2ccccc2cc1C(=O)NC(C)(C(N)=O)C(C)C (centres unmarked) [Methyl 3-[(1-carbamoyl-1,2-dimethylpropyl)carbamoyl]-2-quinolinecarboxylate]	> 5,000 ng/mL
C[n+]1ccc(-c2cc[n+](C)cc2)cc1 [Paraquat]	> 100,000 ng/mL
CCC(CC)Nc1c([N+](=O)[O-])cc(C)c(C)c1[N+](=O)[O-] [Pendimethalin]	> 100,000 ng/mL
mixture of methyl 6-(4-isopropyl-4-methyl-5-oxo-2-imidazolin-2-yl)-m-toluate and methyl 2-(4-isopropyl-4-methyl-5-oxo-2-imidazolin-2-yl)-p-toluate [Imazamethabenz]	33.2 ng/mL
